{"source": "patent US9290740B2", "about": "“Use of basic fibroblast growth factor in the de-differentiation of animal connective tissue cells” (Worcester Polytechnic Institute, priority 2008, dated 2016)", "system": "Nanog in CRL-2352 (ATCC) cells", "experiment": "Effect of valproic acid on FGF2 de-differentiation (Nanog immunocytochemistry on glass coverslips)", "type": "cell-based, human", "conditions": "1.0 μM valproic acid with 4 ng/ml FGF2, glass coverslips, 5% O2, 6 days", "experimental": "The effect of valproic acid on FGF2 de-differentiation was also studied. CRL-2352 (ATCC) cells (2000 cells per well in 24-well plates containing sterile 12 mm glass coverslips) were cultured in medium consisting of DMEM:Ham's F12 (60:40, MediaTech) with 10% Fetalclone III (Hyclone, Logan, Utah) and 4 ng/ml FGF2, with and without 1.0 μM valproic acid, in parallel cultures. Cultures were carried out in a 37° C. incubator in a humidified environment of 5% CO2, 5% O2, and 90% N2 for 6 days with medium changed at day 3. Cells were washed with DPBS and fixed with −20° C. methanol for 10 min, washed with PBS and processed for immunocytochemistry.", "data": [{"smiles": "CCCC(CCC)C(=O)O", "note": "[valproic acid]", "values": [{"measurement": "nuclear staining for Nanog", "result": "increased nuclear staining for Nanog"}]}]}
